Where a name gives a salt, the structure may show the parent alone.

Chain of XIAP BIR3 (N-His-Tb-BIR3(241-356, XIAP)) (P98170 241-356): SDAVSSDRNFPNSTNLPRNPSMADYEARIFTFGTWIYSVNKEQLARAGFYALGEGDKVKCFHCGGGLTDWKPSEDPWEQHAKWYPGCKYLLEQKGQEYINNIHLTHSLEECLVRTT

This test addresses XIAP BIR3 (N-His-Tb-BIR3(241-356, XIAP)) (Homo sapiens (Human), UniProt P98170). It counts as binding. As to conditions: 130 nM N-His-Tb-BIR3(241-356, XIAP), 1.4 nM fluoresceinated modified SMAC peptide, 60 minutes room temperature; read-out: XIAP BIR3 FPA IC50.
One may read the IC50 as the point on the concentration scale where inhibition reaches its midpoint. For `CN[C@@H](C)C(=O)N[C@H](C(=O)N1Cc2ccccc2C[C@H]1CN(C(=O)c1ccc(C(=O)N[C@H]2C[C@@H](C(=O)N[C@@H]3CCCc4ccccc43)N(C(=O)[C@@H](NC(=O)[C@H](C)NC)C(C)(C)C)C2)cc1)[C@H](C)Cc1ccc2ccccc2c1)C(C)(C)C` [Example 30, N^1-(((S)-2-((S)-3,3-Dimethyl-2-((S)-2-(methylamino)propanamido)butanoyl)-1,2,3,4-tetrahydro-isoquinolin-3-yl)methyl)-N^4-((3S,5S)-1-((S)-3,3-dimethyl-2-((S)-2-(methylamino)propanamido)butanoyl)-5-(((R)-1,2,3,4-tetrahydro-naphthalen-1-yl)carbamoyl)pyrrolidin-3-yl)-N^1-((R)-1-(naphthalen-2-yl)propan-2-yl) terephthalamide], the IC50 was 270 nM. Regarding `CN[C@@H](C)C(=O)N[C@H](C(=O)N1Cc2ccccc2C[C@H]1CN(C(=O)c1ccc(C(=O)N[C@H]2C[C@@H](C(=O)N[C@@H]3CCCc4ccccc43)N(C(=O)[C@@H](NC(=O)[C@H](C)NC)C(C)(C)C)C2)cc1)[C@H](C)c1ccc2ccccc2c1)C(C)(C)C` [Example 31, N^1-(((S)-2-((S)-3,3-Dimethyl-2-((S)-2-(methylamino)propanamido)butanoyl)-1,2,3,4-tetrahydro-isoquinolin-3-yl)methyl)-N^4-((3S,5S)-1-((S)-3,3-dimethyl-2-((S)-2-(methyl-amino)propanamido)butanoyl)-5-(((R)-1,2,3,4-tetrahydro-naphthalen-1-yl)carbamoyl)pyrrolidin-3-yl)-N^1-((R)-1-(naphthalen-2-yl)ethyl) terephthalamide], the IC50 came to 250 nM.

As for `CN[C@@H](C)C(=O)N[C@H](C(=O)N1Cc2ccccc2C[C@H]1CN(CCc1cccc2ccccc12)C(=O)c1ccc(C(=O)N[C@H]2C[C@@H](C(=O)N[C@@H]3CCCc4ccccc43)N(C(=O)[C@@H](NC(=O)[C@H](C)NC)C(C)(C)C)C2)cc1)C(C)(C)C` [Example 33, N^1-(((S)-2-((S)-3,3-Dimethyl-2-((S)-2-(methylamino)propanamido)butanoyl)-1,2,3,4-tetrahydro-isoquinolin-3-yl)methyl)-N^4-((3S,5S)-1-((S)-3,3-dimethyl-2-((S)-2-(methylamino)propanamido)butanoyl)-5-(((R)-1,2,3,4-tetrahydro-naphthalen-1-yl)carbamoyl)pyrrolidin-3-yl)-N^1-(2-(naphthalen-1-yl)ethyl) terephthalamide], the IC50 amounted to 120 nM. Turning to `CN[C@@H](C)C(=O)N[C@H](C(=O)N1Cc2ccccc2C[C@H]1CN(Cc1cccc2ccccc12)C(=O)c1ccc(C(=O)N[C@H]2C[C@@H](C(=O)N[C@@H]3CCCc4ccccc43)N(C(=O)[C@@H](NC(=O)[C@H](C)NC)C(C)(C)C)C2)cc1)C(C)(C)C` [Example 34, N^1-(((S)-2-((S)-3,3-Dimethyl-2-((S)-2-(methylamino)propanamido)butanoyl)-1,2,3,4-tetrahydro-isoquinolin-3-yl)methyl)-N^4-((3S,5S)-1-((S)-3,3-dimethyl-2-((S)-2-(methylamino)propanamido)butanoyl)-5-(((R)-1,2,3,4-tetrahydro-naphthalen-1-yl)carbamoyl)pyrrolidin-3-yl)-N^1-(naphthalen-1-ylmethyl) terephthalamide], the IC50 was found to be 160 nM. `CN[C@@H](C)C(=O)N[C@H](C(=O)N1Cc2ccccc2C[C@H]1CN(Cc1cccc(C)c1C)C(=O)c1ccc(C(=O)Nc2ccc3c(c2)CN(C(=O)[C@@H](NC(=O)[C@H](C)NC)C(C)(C)C)[C@H](C(=O)N[C@@H]2CCCc4ccccc42)C3)cc1)C(C)(C)C` [Example 35, N^1-(((S)-2-((S)-3,3-Dimethyl-2-((S)-2-(methylamino)propanamido)butanoyl)-1,2,3,4-tetra-hydroisoquinolin-3-yl)methyl)-N^4-((S)-2-((S)-3,3-dimethyl-2-((S)-2-(methylamino)propanamido)butanoyl)-3-(((R)-1,2,3,4-tetrahydro-naphthalen-1-yl)carbamoyl)-1,2,3,4-tetra-hydroisoquinolin-7-yl)-N^1-(2,3-dimethylbenzyl) terephthalamide]: the IC50 worked out at 230 nM.

For the compound `CN[C@@H](C)C(=O)N[C@H](C(=O)N1Cc2ccccc2C[C@H]1CN(Cc1cccc(C)c1C)C(=O)c1ccc(C(=O)N[C@H]2C[C@@H](C(=O)N[C@@H]3CCCc4ccccc43)N(C(=O)[C@@H](NC(=O)[C@H](C)NC)C(C)(C)C)C2)cc1)C(C)(C)C` [Example 36, N^1-(((S)-2-((S)-3,3-Dimethyl-2-((S)-2-(methylamino)propanamido)butanoyl)-1,2,3,4-tetrahydro-isoquinolin-3-yl)methyl)-N^4-((3S,5S)-1-((S)-3,3-dimethyl-2-((S)-2-(methylamino)propanamido)butanoyl)-5-(((R)-1,2,3,4-tetrahydro-naphthalen-1-yl)carbamoyl)pyrrolidin-3-yl)-N^1-(2,3-dimethyl-benzyl) terephthalamide], the IC50 was determined as 90 nM. Then `CN[C@@H](C)C(=O)N[C@H](C(=O)N1Cc2ccccc2C[C@H]1CN(C(=O)c1ccc(C(=O)N[C@H]2C[C@@H](C(=O)N[C@@H]3CCCc4ccccc43)N(C(=O)[C@@H](NC(=O)[C@H](C)NC)C(C)(C)C)C2)cc1)[C@H](C)c1ccccc1F)C(C)(C)C` [Example 37, N^1-(((S)-2-((S)-3,3-Dimethyl-2-((S)-2-(methylamino)propanamido)butanoyl)-1,2,3,4-tetrahydro-isoquinolin-3-yl)methyl)-N^4-((3S,5S)-1-((S)-3,3-dimethyl-2-((S)-2-(methylamino)propanamido)butanoyl)-5-(((R)-1,2,3,4-tetrahydro-naphthalen-1-yl)carbamoyl)pyrrolidin-3-yl)-N^1-((R)-1-(2-fluorophenyl)ethyl) terephthalamide], with 230 nM. The value for `CN[C@@H](C)C(=O)N[C@H](C(=O)N1Cc2ccccc2CC1C(=O)N(CC1(C(=O)NC2C[C@@H](C(=O)NC3CCCc4ccccc43)N(C(=O)[C@@H](NC(=O)[C@H](C)NC)C(C)(C)C)C2)CC1)[C@@H](COC)c1ccccc1)C(C)(C)C` (stereo partly drawn) [Example 38, (S)-2-((S)-3,3-Dimethyl-2-((S)-2-(methylamino)propanamido)butanoyl)-N-((1-(((3S,5S)-1-((S)-3,3-dimethyl-2-((S)-2-(methylamino)propanamido)butanoyl)-5-(((R)-1,2,3,4-tetrahydronaphthalen-1-yl)carbamoyl)pyrrolidin-3-yl)carbamoyl)cyclopropyl)methyl)-N-((S)-2-methoxy-1-phenylethyl)-1,2,3,4-tetrahydroisoquinoline-3-carboxamide, 2 TFA] was 60 nM; that for `CN[C@@H](C)C(=O)N[C@H](C(=O)N1C[C@@H](NC(=O)CCCN(C(=O)[C@@H]2Cc3ccccc3CN2C(=O)[C@@H](NC(=O)[C@H](C)NC)C(C)(C)C)[C@H](C)c2ccccc2F)C[C@H]1C(=O)N[C@@H]1CCCc2ccccc21)C(C)(C)C` [Example 41, (S)-2-((S)-3,3-Dimethyl-2-((S)-2-(methylamino)propanamido)butanoyl)-N-(4-(((3S,5S)-1-((S)-3,3-dimethyl-2-((S)-2-(methylamino)propanamido)butanoyl)-5-(((R)-1,2,3,4-tetrahydronaphthalen-1-yl)carbamoyl)pyrrolidin-3-yl)amino)-4-oxobutyl)-N-((R)-1-(2-fluorophenyl)ethyl)-1,2,3,4-tetrahydroisoquinoline-3-carboxamide] was 60 nM. Turning to `CN[C@@H](C)C(=O)N[C@H](C(=O)N1CC(NC(=O)C2CC2CN(C(=O)[C@@H]2Cc3ccccc3CN2C(=O)[C@@H](NC(=O)[C@H](C)NC)C(C)(C)C)[C@H](C)c2ccccc2F)C[C@H]1C(=O)NC1CCCc2ccccc21)C(C)(C)C` (stereo partly drawn) [Example 42, (3S)-2-((S)-3,3-Dimethyl-2-((S)-2-(methylamino)propanamido)butanoyl)-N-((2-(((3S,5S)-1-((S)-3,3-dimethyl-2-((S)-2-(methylamino)propanamido)butanoyl)-5-(((R)-1,2,3,4-tetrahydronaphthalen-1-yl)carbamoyl)pyrrolidin-3-yl)carbamoyl)cyclopropyl)methyl)-N-((R)-1-(2-fluorophenyl)ethyl)-1,2,3,4-tetrahydroisoquinoline-3-carboxamide], the IC50 came out at 70 nM. The value for `CN[C@@H](C)C(=O)N[C@H](C(=O)N1C[C@@H](NC(=O)C2(CN(C(=O)[C@@H]3Cc4ccccc4CN3C(=O)[C@@H](NC(=O)[C@H](C)NC)C(C)(C)C)[C@H](C)c3cccc(F)c3F)CC2)C[C@H]1C(=O)N[C@@H]1CCCc2ccccc21)C(C)(C)C` [Example 43, (S)-N-((R)-1-(2,3-Difluorophenyl)ethyl)-2-((S)-3,3-dimethyl-2-((S)-2-(methylamino)propanamido)butanoyl)-N-((1-(((3S,5S)-1-((S)-3,3-dimethyl-2-((S)-2-(methylamino)propanamido)butanoyl)-5-(((R)-1,2,3,4-tetrahydronaphthalen-1-yl)carbamoyl)pyrrolidin-3-yl)carbamoyl)cyclopropyl)methyl)-1,2,3,4-tetrahydroisoquinoline-3-carboxamide] was 180 nM.

The record behind these values is US9603889B2, “IAP antagonists” (BRISTOL-MYERS SQUIBB COMPANY, priority 2012, dated 2017).
